Assay results as given in US20150344426A1, “COMPOUNDS AND THERAPEUTIC USES THEREOF” (ALZHEIMER'S INSTITUTE OF AMERICA, INC., priority 2012, published 2015).
“And” between values parts separate entries of the source, which are not always exact repeats. Identical values can stand only once.

Key:
[1] = Stability in mouse liver microsomal preparations; format: in vitro ADME; settings: liver microsomes, with and without 1 mM NADPH (not said which), read-out: Mouse Liver Microsomes t1/2
Experimental: (§1) Relative stability of Example Compound Nos. 1 through 60 in mouse plasma and mouse liver microsomal preparations.
(§2) Certain Example Compounds were each added to a final concentration of 1 μM to 1 mL of each of mouse plasma and mouse liver microsomal preparations (with and without 1 mM NADPH). Stability assays were run in duplicate and were sampled at 0, 5, 15, 30, 60 and 120 minutes as follows: one hundred microliter aliquots of samples were removed at the specified sampling times, and the reaction was quenched with 400 μL of acetonitrile.
(§3) Samples were analyzed by HPLC-ESI-MS/MS by measuring the peak area of both the starting Example Compound and parent compound (i.e., either Parent Compound A or Parent Compound B) that were created by removal of the Prodrug Moiety (as defined in Section 6 herein).

[2] = Stability in mouse plasma; format: in vitro ADME; settings: read-out: Mouse Plasma t1/2
Experimental: as §1, §2, §3

[3] = Experiment 1: hepatic portal vein samples of rats after oral Example Compound 35; format: in vivo, female Sprague-Dawley rats
Excerpt: It is believed that Example Compound 35 metabolizes in vivo into Parent Compound A (i.e., it is believed that Example Compound 35 is a prodrug of Parent Compound A). The objective of this study was to determine the concentration of Example Compound 35 and Parent Compound A in hepatic portal vein samples of female Sprague-Dawley rats following oral administration of only Example Compound 35, and to quantify the extent of transport into hepatic portal circulation, if any, of Example Compound 35. A second objective was to determine the relative bioavailability of Parent Compound A in the portal vein following oral administration of Example Compound 35.
Experiment 1. Three female Sprague Dawley rats (200-215 g, Harlan Laboratories, Indianapolis, Ind.) with cannulae implanted surgically in the portal vein for blood sampling were used in this study. Example Compound 35, formulated in 50 mM Glycine pH 3.0 with 0.5% HPMC and 0.05% Tween-80, was administered by oral gavage (PO) at a dose of 20 mg/kg in a volume of 2 mL/kg. This dose is the molar equivalent of a 13.5 mg/kg dose of Parent Compound A. Portal blood samples were collected through the portal vein cannula from each animal at 0.25, 0.5, 1, 2, 4, and 8 hours following administration of compound. Samples were split into two fractions and one was supplemented with citrate buffer (final concentration 100 mM, pH 3.0) to stabilize Example Compound 35 and stop conversion of Example Compound 35 to Parent Compound A ex vivo during analysis. Samples were then processed to generate plasma and analyzed for Example Compound 35 by LC-MS/MS. Plasma derived from the second aliquot of blood was analyzed for Parent Compound A.
Pharmacokinetic parameters estimated for Parent Compound A included the maximum observed drug concentration (Cmax), time of maximum observed drug concentration (Tmax), apparent terminal half-life (t1/2), area under the concentration-time curve from time zero to 8 hours postdose (AUC(0-8)), and area under the concentration-time curve extrapolated to infinity (AUC(0-inf)). The bioavailability (% F) of Parent Compound A in portal vein samples relative to IV administration was also estimated.
Plasma samples were analyzed for Example Compound 35 or Parent Compound A concentration using a LC-MS/MS method. All sample runs met standard acceptance criteria for discovery purposes, and were based on a standard curve containing at least 7 points. At least half of quality control samples at each of the three concentrations tested, and two thirds of the entire quality control sample pool, were within 15% of their theoretical value. The r^2 value for each standard curve was ≧0.99. The quantitation range for the Example Compound 35 and Parent Compound A assays was 1 to 100 ng/mL and 5 to 2,500 ng/mL, respectively, using a 0.05 mL sample volume.
The data were entered into the PK software package WinNonlin® version 5.1.1. A complete data check was conducted to verify the accuracy of data entry.
Pharmacokinetic parameters were estimated on median plasma concentrations using extravascular input (PO). Nominal collection times after administration of compound were used for PK analyses. The use of a non-compartmental model provided an adequate fit of the data. Pharmacokinetic parameters estimated for Parent Compound A included the maximum observed drug concentration (Cmax), time of maximum observed drug concentration (Tmax), apparent terminal half-life (t1/2), apparent volume of distribution (Vz obs), apparent clearance (C1 obs), area under the concentration-time curve from time zero to 8 hours postdose of Example Compound 35 […], and area under the concentration-time curve extrapolated to infinity (AUC(0-inf)). Example Compound 35 was detected in only one 0.25 hour hepatic portal vein sample at 1.29 ng/mL. Any Example Compound 35 present in all of the other samples was below the quantitation limit of 1 ng/mL and pharmacokinetic parameters were not determined for those samples. […]

[4] = tested on: HT1080 human fibrosarcoma cancer cells; test: Anti-tumor activity in HT1080 human fibrosarcoma xenograft with twice daily dosing; format: in vivo; settings: for MTV increase / tumor growth inhibition relative to vehicle: 6 mg/kg twice daily for 8 days; for MTV decrease / tumor regression: 12 mg/kg twice daily for 8 days
Outline: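 Female nude mice (Crl:NU-Fox1^nu) bearing s.c. flank tumors from 1 million HT1080 cells, randomized into cohorts of ten at median tumor volumes about 82–209 mm^3. Dosing twice daily for 7 days; tumor volumes and body weights tracked from Day 1 to Days 15–22.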

[5] = female rats, orally at 20 mg/kg

## O=C(NCc1ccc[n+](COC(=O)c2ccccc2)c1)Nc1ccc(OCCc2ccccc2-c2ccccc2)cc1 [Example 35, 1-[(Benzoyloxy)methyl]-3-{[({4-[2-(biphenyl-2-yl)ethoxy]phenyl}carbamoyl)amino]methyl} pyridinium]
[1]
  half-life at 1 µM: < 5 min
[2]
  half-life at 1 µM: 77.2 min
[3]; [5]
  Conversion to Parent Compound A following oral administration: rapidly converted
  Transport of Example Compound 35 into the hepatic portal vein: not significantly transported
[3]; female, Sprague-Dawley, rat, plasma (hepatic portal vein), po, 20 mg/kg, portal vein, 1 hr after oral Example Compound 35 20 mg/kg, individual rats, * = below the quantitation limit of 1 ng/mL, read-out: [Ex. Cmp. 35]
  concentration at 1 h: 0.24 ng/mL
[3]; female, Sprague-Dawley, rat, plasma (hepatic portal vein), po, 20 mg/kg, portal vein, 2 hr after oral Example Compound 35 20 mg/kg, individual rats, * = below the quantitation limit of 1 ng/mL, read-out: [Ex. Cmp. 35]
  concentration at 2 h: 0.15 ng/mL
[3]; female, Sprague-Dawley, rat, plasma (hepatic portal vein), po, 20 mg/kg, portal vein, 4 hr after oral Example Compound 35 20 mg/kg, individual rats, * = below the quantitation limit of 1 ng/mL, read-out: [Ex. Cmp. 35]
  concentration at 4 h: 0.13 ng/mL
[3]; oral 20 mg/kg, all samples other than one 0.25 hour sample, quantitation limit
  Example Compound 35 present in all of the other portal vein samples: < 1 ng/mL
[3]; portal vein, 0.25 hr after oral Example Compound 35 20 mg/kg, individual rats, * = below the quantitation limit of 1 ng/mL, 20 mg/kg
  [Ex. Cmp. 35]: 1.29 ng/mL
[3]; portal vein, 0.25 hr after oral Example Compound 35 20 mg/kg, individual rats, * = below the quantitation limit of 1 ng/mL, listed as Ex. Cmp. 35, 20 mg/kg
  [Ex. Cmp. 35]: 0.38* ng/mL and 1.3 ng/mL and 0.75* ng/mL
[3]; portal vein, 0.5 hr after oral Example Compound 35 20 mg/kg, individual rats, * = below the quantitation limit of 1 ng/mL, listed as Ex. Cmp. 35, 20 mg/kg
  [Ex. Cmp. 35]: 0.8* ng/mL and 0.32* ng/mL and 0.4* ng/mL
[3]; portal vein, 1 hr after oral Example Compound 35 20 mg/kg, individual rats, * = below the quantitation limit of 1 ng/mL, listed as Ex. Cmp. 35, 20 mg/kg
  [Ex. Cmp. 35]: 0.38* ng/mL and 0.29* ng/mL
[3]; portal vein, 2 hr after oral Example Compound 35 20 mg/kg, individual rats, * = below the quantitation limit of 1 ng/mL, listed as Ex. Cmp. 35, 20 mg/kg
  [Ex. Cmp. 35]: 0.3* ng/mL and No Peak
[3]; portal vein, 4 hr after oral Example Compound 35 20 mg/kg, individual rats, * = below the quantitation limit of 1 ng/mL, listed as Ex. Cmp. 35, 20 mg/kg
  [Ex. Cmp. 35]: No Peak and 0.13* ng/mL
[3]; portal vein, 8 hr after oral Example Compound 35 20 mg/kg, individual rats, * = below the quantitation limit of 1 ng/mL, listed as Ex. Cmp. 35, 20 mg/kg
  [Ex. Cmp. 35]: No Peak and 0.16* ng/mL and 0.07* ng/mL
[4]; Day 9
  MTV increase: 31%
  tumor growth inhibition relative to vehicle: 87%
  MTV decrease: 81%
  tumor regression: 80%
[4]; Day 21
  MTV increase: 2245%
  tumor growth inhibition relative to vehicle: 78%
  MTV decrease: 33%
  tumor regression: 33%
[4]; Example Compound 35 study, 12 mg/kg, cohort of ten
  animals with no detectable tumors by the end of the study: Four
[4]; Example Compound 35 study, 6 and 12 mg/kg
  animals euthanized: No animals
[4]; administered orally, twice daily, all doses tested
  anti-tumor activity in the HT1080 xenograft model (summary statement): significant anti-tumor activity
[4]; over the course of the study, all doses tested, orally twice daily
  maximal reduction in median body weight: < 15 % of the initial weight
[4]; xenograft mice, all doses tested, orally twice daily
  Tolerability: well tolerated
